Results reported in PMC3859378 (Archives of biochemistry and biophysics, 2013).

Molecular target: Mtb-GAPDH (Mycobacterium tuberculosis, UniProt P9WN83)
Test: time- and concentration-dependent inactivation, Kitz-Wilson re-plot
Type: biochemical
Details: read-out: Ki

Mtb-GAPDH, sequence (P9WN83 whole entry): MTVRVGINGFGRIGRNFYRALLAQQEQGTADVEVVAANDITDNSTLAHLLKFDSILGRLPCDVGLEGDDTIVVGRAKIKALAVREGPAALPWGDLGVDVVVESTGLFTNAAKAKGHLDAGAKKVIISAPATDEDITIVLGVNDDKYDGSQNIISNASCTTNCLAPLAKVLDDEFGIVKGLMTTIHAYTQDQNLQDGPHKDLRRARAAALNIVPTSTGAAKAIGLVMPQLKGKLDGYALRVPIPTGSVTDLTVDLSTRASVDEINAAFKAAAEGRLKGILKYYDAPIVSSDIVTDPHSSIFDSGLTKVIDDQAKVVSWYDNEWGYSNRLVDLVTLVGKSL

## NC(=O)CI [IAM, iodoacetamide]
  KI (inactivation): 7.8 mM
